Measured values from ChEMBL document CHEMBL1201862, “PubChem BioAssay data set” (2004).
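A five-concentration, 48-hour dose response in 96-well plates underlies each endpoint, interpolated linearly between surrounding concentrations. Here, GI50 denotes the concentration required for 50% inhibition of growth.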 Activity calls are given as the source filed them. Cut-off read from the data, not from the text of the source: active = GI50 up to about 1.1 µM and inactive = higher.

Columns and labels:
Experiment in all cases: growth of human tumour cells (NCI), 48 h
786-0 = test system: 786-0
A498 = test system: A498
A549 = test system: A549
ACHN = test system: ACHN
BT-549 = test system: BT-549
CAKI-1 = test system: CAKI-1
CCRF-CEM = test system: CCRF-CEM
COLO 205 = test system: COLO 205
DU-145 = test system: DU-145
EKVX = test system: EKVX
HCT-116 = test system: HCT-116
HCT-15 = test system: HCT-15
HL-60 = test system: HL-60
HOP-62 = test system: HOP-62
HOP-92 = test system: HOP-92
HT-29 = test system: HT-29
Hs-578T = test system: Hs-578T
IGROV-1 = test system: IGROV-1
K562 = test system: K562
KM12 = test system: KM12
LOX IMVI = test system: LOX IMVI
M14 = test system: M14
MDA-MB-231 = test system: MDA-MB-231
MDA-MB-435 = test system: MDA-MB-435
MDA-N = test system: MDA-N
MOLT-4 = test system: MOLT-4
Malme-3M = test system: Malme-3M
NCI-H226 = test system: NCI-H226
NCI-H23 = test system: NCI-H23
NCI-H460 = test system: NCI-H460
NCI-H522 = test system: NCI-H522
NCI/ADR-RES = test system: NCI/ADR-RES
OVCAR-3 = test system: OVCAR-3
OVCAR-4 = test system: OVCAR-4
OVCAR-5 = test system: OVCAR-5
OVCAR-8 = test system: OVCAR-8
PC-3 = test system: PC-3
RPMI-8226 = test system: RPMI-8226
RXF 393 = test system: RXF 393
SF-268 = test system: SF-268
SF-295 = test system: SF-295
SF-539 = test system: SF-539
SK-MEL-28 = test system: SK-MEL-28
SK-MEL-2 = test system: SK-MEL-2
SK-MEL-5 = test system: SK-MEL-5
SK-OV-3 = test system: SK-OV-3
SN12C = test system: SN12C
SNB-19 = test system: SNB-19
SR = test system: SR
SW-620 = test system: SW-620
T47D = test system: T47D
TK-10 = test system: TK-10
U-251 = test system: U-251
UACC-257 = test system: UACC-257
UACC-62 = test system: UACC-62
UO-31 = test system: UO-31

In the case of `c1ccc([B-]2(c3ccccc3)NCCCO2)cc1`, the GI50 (786-0) is reported as 56.9 µM (inactive), the GI50 (A498) is reported as 47.9 µM (inactive) and the GI50 (A549) is reported as 58.6 µM (inactive). For the same compound, the GI50 (ACHN) was 35.4 µM (inactive), the GI50 (BT-549) was 31.4 µM (inactive) and the GI50 (CAKI-1) was 40.6 µM (inactive). For the same compound, the GI50 (CCRF-CEM) was 34.5 µM (inactive), the GI50 (COLO 205) was 24.9 µM (inactive) and the GI50 (DU-145) was 72.3 µM (inactive). The GI50 (EKVX) was 97.5 µM (inactive), the GI50 (HCT-116) was 35.8 µM (inactive) and the GI50 (HCT-15) was 31.8 µM. For the same compound, the GI50 (HL-60) was > 100 µM (inactive), the GI50 (HOP-62) was > 100 µM (inactive) and the GI50 (HOP-92) was 20.3 µM (inactive). For the same compound, the GI50 (HT-29) was > 100 µM (inactive), the GI50 (Hs-578T) was 32.1 µM (inactive) and the GI50 (IGROV-1) was 55 µM (inactive). The GI50 (K562) was 97.7 µM (inactive), the GI50 (KM12) was 91.2 µM (inactive) and the GI50 (LOX IMVI) was 59.4 µM (inactive). For the same compound, the GI50 (M14) was 31.3 µM (inactive), the GI50 (MDA-MB-231) was 42.5 µM (inactive) and the GI50 (MDA-MB-435) was 46.3 µM (inactive). For the same compound, the GI50 (MDA-N) was 42.7 µM (inactive), the GI50 (MOLT-4) was 32.7 µM (inactive) and the GI50 (Malme-3M) was 48.9 µM (inactive). For the same compound, the GI50 (NCI-H226) was 31 µM (inactive), the GI50 (NCI-H23) was 47 µM (inactive) and the GI50 (NCI-H460) was 72.8 µM (inactive). For the same compound, the GI50 (NCI-H522) was 33.4 µM (inactive), the GI50 (NCI/ADR-RES) was 64.1 µM (inactive) and the GI50 (OVCAR-3) was 35.1 µM (inactive). The GI50 (OVCAR-4) was 67.9 µM (inactive), the GI50 (OVCAR-5) was > 100 µM (inactive) and the GI50 (OVCAR-8) was 70.5 µM (inactive). The GI50 (PC-3) was 20.9 µM (inactive), the GI50 (RPMI-8226) was 37.2 µM (inactive) and the GI50 (RXF 393) was 28.8 µM (inactive). The GI50 (SF-268) was > 100 µM (inactive), the GI50 (SF-295) was 51.3 µM (inactive) and the GI50 (SF-539) was 33.3 µM (inactive). The GI50 (SK-MEL-28) was 56.8 µM (inactive), the GI50 (SK-MEL-2) was 89.9 µM (inactive) and the GI50 (SK-MEL-5) was 24.8 µM (inactive). For the same compound, the GI50 (SK-OV-3) was 85.7 µM (inactive), the GI50 (SN12C) was 70.8 µM (inactive) and the GI50 (SNB-19) was > 100 µM (inactive). The GI50 (SR) was 44.9 µM (inactive), the GI50 (SW-620) was 49.5 µM (inactive) and the GI50 (T47D) was 34.9 µM (inactive). The GI50 (TK-10) was 43.2 µM (inactive), the GI50 (U-251) was > 100 µM (inactive) and the GI50 (UACC-257) was 49.9 µM (inactive). For the same compound, the GI50 (UACC-62) was 45.4 µM (inactive) and the GI50 (UO-31) was 20 µM (inactive).
